Assay results published in patent US20150315241A1, “Antibiotic Peptides” (priority 2007, published 2015).
≈ marks a conversion by molar mass, not a printed value. Read-outs that look alike come from different tables or passages of the source. Where a SMILES comes first, the peptide text is derived from it. Where no end group is shown, it is not given here. [ ]: non-standard residue; d: D form. The star is where a group is joined. Orn(α-tetramethylguanidino) = CN(C)C(=N[C@@H](CCCN)C(=O)*)N(C)C; Arg(NO2) = N=C(NCCC[C@H](N)C(=O)O)N[N+](=O)[O-]; NMeR = CN[C@@H](CCCNC(=N)N)C(=O)O; β3hR = N=C(N)NCCC[C@H](N)CC(=O)O; Orn = NCCC[C@H](N)C(=O)O

Tests used:
M. luteus ATCC 10240 = assay type: cell-based, Micrococcus luteus
Description: (§1) The minimal inhibition concentrations (MIC) of the apidaecin-derived peptides and peptide-derivatives were determined by a growth inhibition assay using a serial peptide dilution in sterilized round-bottom 96-well plates (polystyrene, U-bottom, Greiner Bio-One GmbH) with a final volume of 100 μL per well. The bacteria, e.g., E. coli BL21 A1, were grown in nutrient broth (NB, Carl Roth GmbH+Co. KG, Karlsruhe, Germany) at 37° C. over night. To each well of the 96-well plate, 50 μL of the overnight culture adjusted to 5×10^6 CFU/mL in 1% TSB were added. Lyophilized peptides and peptidomimetics were dissolved in 1% TSB (tryptic soy broth) or water to give a final concentration of 250 μg/mL. Fifty μL of the peptide or peptidomimetics solution were added to the first well of a row on the plate and mixed. Fifty μL of the first well containing the peptide solution were transferred to the second well, mixed and again 50 μL transferred to the next well and so on. Thereby, a two-fold dilution series was obtained starting at 250 μg/mL in the first well down to 120 ng/mL in the 12th well of a row giving a final peptide or peptidomimetics concentration from 125 μg/mL (well 1) to 60 ng/mL (well 12). Plates were incubated at 37° C. for 20 hrs. The absorbance was measured at 595 nm using a TECAN micro plate spectrophotometer (Tecan, Germany). All peptides and peptidomimetics were measured in triplicates. Sterilized water was used as a negative control.
(§2) The bacteria strains were tested: • Eschericha coli 1103, 10233, BL 21 AI, DC 2, • Klebsiella pneumoniae 681, • Micrococcus luteus ATCC 10240, • Mycobacterium vaccae • Bactillus subtillis 347.

B. subtilis 347 = assay type: cell-based, Bactillus subtillis; conditions: 1% TSB, 37° C., 20 hrs
Description: as §1, §2

E. coli BL 21 AI = assay: Growth inhibition assay (MIC); assay type: cell-based, Escherichia coli; conditions: 1% TSB, 37° C., 20 hrs
Description: as §1, §2

E. coli 45849 = assay: Growth inhibition assay (MIC); assay type: cell-based, Escherichia coli; conditions: multidrug resistant strain; 1% TSB, 37° C., 20 hrs
Description: as §1
(§3) The following multidrug resistant bacteria strains were tested: • Eschericha coli 45849 and D31, • Klebsiella pneumoniae 123132 and K6, • Salmonella typhi S5 and Salmonella enterica subsp. enterica serovar Typhimurium (ATCC 700408), • Rhizobium radiobacter (ATCC 15955 deposited as Agrobacterium tumefaciens).

S. typhi S5 = assay type: cell-based, Salmonella typhi
Description: as §1, §3

[1] = test system: K. Pneumonia K6, ATCC 700603; assay: Growth inhibition assay (MIC); assay type: cell-based, Klebsiella pneumoniae; conditions: multidrug resistant strain; 1% TSB, 37° C., 20 hrs
Description: as §1, §3

K. Pneumonia 123132 = assay: Growth inhibition assay (MIC); assay type: cell-based, Klebsiella pneumoniae; conditions: multidrug resistant strain; 1% TSB, 37° C., 20 hrs
Description: as §1, §3

[2] = test system: S. enterica subsp. Enterica serovar. typhi G10215 ATCC 700408; assay type: cell-based, Salmonella enterica
Description: as §1, §3

E. coli D31 = assay type: cell-based, Escherichia coli
Description: as §1, §3

[3] = multidrug resistant strain, 1% TSB, 37° C., 20 hrs

Row | Molecule | MIC E. coli BL 21 AI (E. coli BL 21 AI) | MIC K. Pneumonia K6, ATCC 700603 [1] | MIC M. luteus ATCC 10240 (M. luteus ATCC 10240; ATCC 10240, 20 h) | MIC E. coli D31 (E. coli D31; D31, 20 h) | also measured
1 | 86 ([Orn]NNRPVYIPRPRPPHPRPIRV-NH2) [compound 86] | 3.91 mg/L | – | – | – | MIC M. luteus ATCC 10240 (M. luteus ATCC 10240; 1% TSB, 37° C., 20 hrs): 0.98 mg/L; MIC B. subtilis 347 (B. subtilis 347): 62.5 mg/L
2 | 159 (GNNRPVYIPRPRPPHPRL) [compound 159] | – | 4 mg/L | – | – | MIC E. coli 45849 (E. coli 45849): 1 mg/L; MIC S. typhi S5 (S. typhi S5; [3]): 0.25 mg/L; MIC K. Pneumonia 123132 (K. Pneumonia 123132): 4 mg/L; MIC S. enterica subsp. Enterica serovar. typhi G10215 ATCC 700408 [2, 3]: 0.25 mg/L; MIC E. coli D31 (E. coli D31; [3]): 1 mg/L
3 | CC[C@H](C)[C@H](NC(=O)[C@H](CCCNC(=N)N)NC(=O)[C@@H]1CCCN1C(=O)[C@H](Cc1c[nH]cn1)NC(=O)[C@@H]1CCCN1C(=O)[C@@H]1CCCN1C(=O)[C@H](CCCNC(=N)N)NC(=O)[C@@H]1CCCN1C(=O)[C@H](CCCNC(=N)N)NC(=O)[C@@H]1CCCN1C(=O)[C@@H](NC(=O)[C@H](Cc1ccc(O)cc1)NC(=O)[C@@H](NC(=O)[C@@H]1CCCN1C(=O)[C@H](CCCNC(=N)N)NC(=O)[C@H](CC(N)=O)NC(=O)[C@H](CC(N)=O)NC(=O)[C@@H](N)CCCN)C(C)C)[C@@H](C)CC)C(N)=O [compound 16] (H-[Orn]NNRPVYIPRPRPPHPRI-NH2) | 0.98 mg/L (≈ 0.447 µM) | 32 mg/L (≈ 14.6 µM) | 3.91 mg/L (≈ 1.78 µM) | 128 mg/L (≈ 58.4 µM) | MIC S. enterica subsp. Enterica serovar. typhi G10215 ATCC 700408 ([2]; ATCC 700408, 20 h): 2 mg/L (≈ 0.912 µM)
4 | CC[C@H](C)[C@H](NC(=O)[C@H](Cc1ccc(O)cc1)NC(=O)[C@@H](NC(=O)[C@@H]1CCCN1C(=O)[C@H](CCCNC(=N)N)NC(=O)[C@H](CC(N)=O)NC(=O)[C@H](CC(N)=O)NC(=O)[C@H](CCCN)NC(C)=O)C(C)C)C(=O)N1CCC[C@H]1C(=O)N[C@@H](CCC(N)=O)C(=O)N1CCC[C@H]1C(=O)N[C@@H](CCCNC(=N)N)C(=O)N1CCC[C@H]1C(=O)N1CCC[C@H]1C(=O)N[C@@H](Cc1c[nH]cn1)C(=O)N1CCC[C@H]1C(=O)N[C@@H](CCCNC(=N)N)C(=O)N[C@@H](CC(C)C)C(=O)OC [compound 50] (Ac-[Orn]NNRPVYIPQPRPPHPRL-OMe) | – | >128 mg/L | – | >128 mg/L | MIC S. enterica subsp. Enterica serovar. typhi G10215 ATCC 700408 ([2]; ATCC 700408, 20 h): 32 mg/L (≈ 14.4 µM)
5 | CC[C@H](C)[C@H](NC(=O)[C@H](Cc1ccc(O)cc1)NC(=O)[C@@H](NC(=O)[C@@H]1CCCN1C(=O)[C@H](CCCNC(=N)N)NC(=O)[C@H](CC(N)=O)NC(=O)[C@H](CC(N)=O)NC(=O)[C@H](CCCN)N=C(N(C)C)N(C)C)C(C)C)C(=O)N1CCC[C@H]1C(=O)N[C@@H](CCC(N)=O)C(=O)N1CCC[C@H]1C(=O)N[C@@H](CCCNC(=N)N)C(=O)N1CCC[C@H]1C(=O)N1CCC[C@H]1C(=O)N[C@@H](Cc1c[nH]cn1)C(=O)N1CCC[C@H]1C(=O)N[C@@H](CCCNC(=N)N)C(=O)N[C@@H](CC(C)C)C(N)=O [compound 120] ({Orn(α-tetramethylguanidino)}-NNRPVYIPQPRPPHPRL-NH2; N-terminus and C-terminus assumed) | – | – | – | 0.5 mg/L (≈ 0.221 µM) | MIC S. typhi S5 (S. typhi S5; S5, 20 h): 0.125 mg/L (≈ 0.0552 µM); MIC S. enterica subsp. Enterica serovar. typhi G10215 ATCC 700408 ([2]; ATCC 700408, 20 h): 0.125 mg/L (≈ 0.0552 µM)
6 | CC[C@H](C)[C@H](NC(=O)[C@H](Cc1ccc(O)cc1)NC(=O)[C@@H](NC(=O)[C@@H]1CCCN1C(=O)[C@H](CCCNC(=N)N)NC(=O)[C@H](CC(N)=O)NC(=O)[C@H](CC(N)=O)NC(=O)[C@@H](N)CCCN)C(C)C)C(=O)N1CCC[C@H]1C(=O)N[C@@H](CCC(N)=O)C(=O)N1CCC[C@H]1C(=O)N[C@@H](CCCNC(=N)N)C(=O)N1CCC[C@H]1C(=O)N1CCC[C@H]1C(=O)N[C@@H](Cc1c[nH]cn1)C(=O)N1CCC[C@H]1C(=O)N[C@@H](CCCNC(=N)N)CC(=O)N[C@@H](CC(C)C)C(N)=O [compound 121] (H-[Orn]NNRPVYIPQPRPPHP[β3hR]L-NH2) | – | >128 mg/L | – | 16 mg/L (≈ 7.34 µM) | MIC E. coli 45849 (E. coli 45849): 128 mg/L (≈ 58.8 µM); MIC K. Pneumonia 123132 (K. Pneumonia 123132): 128 mg/L (≈ 58.8 µM)
7 | CC[C@H](C)[C@H](NC(=O)[C@H](Cc1ccc(O)cc1)NC(=O)[C@@H](NC(=O)[C@@H]1CCCN1C(=O)[C@H](CCCNC(=N)N)NC(=O)[C@H](CC(N)=O)NC(=O)[C@H](CC(N)=O)NC(=O)[C@H](CCCN)NC(C)=O)C(C)C)C(=O)N1CCC[C@H]1C(=O)N[C@@H](CCCNC(=N)N)C(=O)N1CCC[C@H]1C(=O)N[C@@H](CCCNC(=N)N)C(=O)N1CCC[C@H]1C(=O)N1CCC[C@H]1C(=O)N[C@@H](Cc1c[nH]cn1)C(=O)N1CCC[C@H]1C(=O)N[C@H](CCCNC(=N)N)C(=O)N[C@@H](CC(C)C)C(N)=O [compound 152] (Ac-[Orn]NNRPVYIPRPRPPHP[dR]L-NH2) | 32 mg/L (≈ 14.3 µM) | – | 32 mg/L (≈ 14.3 µM) | – | –
8 | CC[C@H](C)[C@H](NC(=O)[C@H](Cc1ccc(O)cc1)NC(=O)[C@@H](NC(=O)[C@@H]1CCCN1C(=O)[C@H](CCCNC(=N)N)NC(=O)[C@H](CC(N)=O)NC(=O)[C@H](CC(N)=O)NC(=O)[C@H](CCCN)NC(C)=O)C(C)C)C(=O)N1CCC[C@H]1C(=O)N[C@@H](CCCNC(=N)N)C(=O)N1CCC[C@H]1C(=O)N[C@@H](CCCNC(=N)N)C(=O)N1CCC[C@H]1C(=O)N1CCC[C@H]1C(=O)N[C@@H](Cc1c[nH]cn1)C(=O)N1CCC[C@H]1C(=O)N(C)[C@@H](CCCNC(=N)N)C(=O)N[C@@H](CC(C)C)C(N)=O [compound 153] (Ac-[Orn]NNRPVYIPRPRPPHP[NMeR]L-NH2) | 16 mg/L (≈ 7.12 µM) | – | 32 mg/L (≈ 14.2 µM) | – | –
9 | CC[C@H](C)[C@H](NC(=O)[C@H](Cc1ccc(O)cc1)NC(=O)[C@@H](NC(=O)[C@@H]1CCCN1C(=O)[C@H](CCCNC(=N)N)NC(=O)[C@H](CC(N)=O)NC(=O)[C@H](CC(N)=O)NC(=O)[C@H](CCCN)NC(C)=O)C(C)C)C(=O)N1CCC[C@H]1C(=O)N[C@@H](CCCNC(=N)N)C(=O)N1CCC[C@H]1C(=O)N[C@@H](CCCNC(=N)N)C(=O)N1CCC[C@H]1C(=O)N1CCC[C@H]1C(=O)N[C@@H](Cc1c[nH]cn1)C(=O)N1CCC[C@H]1C(=O)N[C@@H](CCCNC(N)=N[N+](=O)[O-])C(=O)N[C@@H](CC(C)C)C(N)=O [compound 154] (Ac-[Orn]NNRPVYIPRPRPPHP[Arg(NO2)]L-NH2) | 16 mg/L (≈ 7.02 µM) | – | 32 mg/L (≈ 14 µM) | – | –
10 | GNNRPVYIPQPRPPHPL-NH2 [compound 43] | – | >64 mg/L | – | >128 mg/L | MIC S. enterica subsp. Enterica serovar. typhi G10215 ATCC 700408 ([2]; ATCC 700408, 20 h): >64 mg/L
11 | GNNRPVYIPQPRPPHPRF-NH2 [compound 44] | – | 64 mg/L | – | 128 mg/L | MIC S. enterica subsp. Enterica serovar. typhi G10215 ATCC 700408 ([2]; ATCC 700408, 20 h): 4 mg/L
12 | H-GNNRPVYIAQPRPPHPAL-NH2 [compound 136] | >125 mg/L | – | >125 mg/L | – | –
13 | H-GNNRPVYIAQPRPPHPRL-NH2 [compound 140] | >125 mg/L | – | 125 mg/L | – | –
14 | H-GNNRPVYIPQPRPPHPAL-NH2 [compound 139] | >125 mg/L | – | >125 mg/L | – | –
15 | H-GNNRPVYIPQPRPPHPR-OH [compound 144] | >125 mg/L | – | >125 mg/L | – | –
16 | H-GNNRPVYIPRPRPPHPRLV-OH [compound 69] | 7.81 mg/L | – | 0.24 mg/L | – | –
17 | H-NNRPVYIPQPRPPHPRI-NH2 [compound 92] | 3.91 mg/L | – | 31.25 mg/L | – | –
18 | H-RPVYIPQPRPPHPRL-NH2 [compound 142] | 125 mg/L | – | 125 mg/L | – | –
